Results: patent US6774110B2, “Orally available peptidic thrombin inhibitors” (LG Life Sciences Ltd., priority 2001, dated 2004)
Where a name gives a salt, the structure may show the parent alone.

Target: T1, thrombin (Homo sapiens, UniProt P00734)
T1 construct: Thrombin used in this test was prepared from human plasma; from tissue; host or cells: human plasma
Test: In vitro enzyme assay for determining thrombin inhibition constants (Chromozym TH substrate)
Assay type: biochemical
Details: thrombin prepared from human plasma; Dixon plot; pH 7.8; read-out: Inhibition constant Ki
Description: The activity of thrombin was measured spectrophotometrically using tosyl-Gly-Pro-Arg-p-nitroanilide acetate (Chromozym TH, Boehringer Mannheim) as a substrate. […] Each compound was dissolved in DMSO to make a 1 mM stock solution and dilutions were made thereof with assay buffer (0.1 M TrisHCl, 0.15 M NaCl, 0.1% polyethylene glycol 8000, pH 7.8). Different concentrations of inhibitor were mixed with 0.3 NIH units of thrombin in 0.8 mL of the buffer. The mixture was incubated for 10 min at room temperature before adding 0.2 mL of the substrate to a final concentration of 20 μM. […] A graph for the reciprocal value of initial velocity to the inhibitor concentration was derived from progress curves by fitting the data using a linear regression program. […]

Ki | SMILES
0.055 nM | N=C(N)c1ccc(CNC(=O)[C@@H]2CCCN2C(=O)[C@H](NS(N)(=O)=O)C(c2ccccc2)c2ccccc2)nc1 [Compound 13, N-aminosulfonyl-D-diphenylalanyl-L-prolyl-(5-amidino-2-picolyl)amide.TFA]
4.2 nM | NCc1ccc(CNC(=O)[C@@H]2CCCN2C(=O)[C@H](NS(N)(=O)=O)C(c2ccccc2)c2ccccc2)cn1 [Compound 10, N-aminosulfonyl-D-diphenylalanyl-L-prolyl-(6-aminomethyl-3-picolyl)amide]
43 nM | CC(C)[C@@H](NS(N)(=O)=O)C(=O)N1CCC[C@H]1C(=O)NCc1ccc(C(=N)N)cc1 [Compound 8, N-Aminosulfonyl-D-valinyl-L-prolyl-[(4-amidinophenyl)methyl]amide.TFA]
0.06 nM | COC(=O)N[C@@H](C(=O)N1CC[C@H]1C(=O)NCc1ccc(C(=N)N)cc1)C(c1ccccc1)c1ccccc1 [Compound 28, N-methoxycarbonyl-D-diphenylalanyl-L-azetidine-2-carboxyl-[(4-amidinophenyl)methyl]amide.TFA]
0.02 nM | COC(=O)N[C@@H](C(=O)N1CCC[C@H]1C(=O)NCc1ccc(C(=N)N)nc1)C(C1CCCCC1)C1CCCCC1 [Compound 32, N-methoxycarbonyl-D-dicyclohexylalanyl-L-prolyl-(6-amidino-3-picolyl) amide.TFA]
0.16 nM | N=C(N)c1ccc(CNC(=O)[C@@H]2CCCN2C(=O)[C@@H](Cc2ccc(Cl)c(Cl)c2)NS(N)(=O)=O)cc1 [Compound 3, N-aminosulfonyl-D-3,4-dichlorophenylalanyl-L-prolyl-[(4-amidinophenyl)methyl]amide.TFA]
0.15 nM | CP(C)(=O)N[C@@H](C(=O)N1CCC[C@H]1C(=O)NCc1ccc(C(=N)N)cc1)C(c1ccccc1)c1ccccc1 [Compound 44, N-dimethylphosphoryl-D-diphenylalanyl-L-prolyl-[(4-amidinophenyl)methyl]amide.TFA]
0.02 nM | COC(=O)N[C@@H](C(=O)N1CCC[C@H]1C(=O)NCc1ccc(C(=N)N)cc1)C(C1CCCCC1)C1CCCCC1 [Compound 27, N-methoxycarbonyl-D-dicyclohexylalanyl-L-prolyl-[(4-amidinophenyl)methyl]amide.TFA]
0.046 nM | N=C(N)c1ccc(CNC(=O)[C@@H]2CCCN2C(=O)[C@H](NS(N)(=O)=O)C(C2CCCCC2)C2CCCCC2)cn1 [Compound 11, N-aminosulfonyl-D-dicyclohexylalanyl-L-prolyl-(6-amidino-3-picolyl)amide.TFA]
0.03 nM | N=C(N)c1ccc(CNC(=O)[C@@H]2CCCN2C(=O)[C@H](NCC(=O)O)C(c2ccccc2)c2ccccc2)cn1 [Compound 46, N-carboxymethyl-D-diphenylalanyl-L-prolyl-(6-amidino-3-picolyl)amide.2TFA]
0.04 nM | N=C(N)c1ccc(CNC(=O)[C@@H]2CCCN2C(=O)[C@H](NC(=O)OCc2ccccc2)C(c2ccccc2)c2ccccc2)cc1 [Compound 24, N-benzyloxycarbonyl-D-diphenylalanyl-L-prolyl-[(4-amidinophenyl)methyl]amide.TFA]
0.05 nM | COC(=O)N[C@@H](C(=O)N1CCC[C@H]1C(=O)NCc1ccc(C(=N)N)c(F)c1)C(c1ccccc1)c1ccccc1 [Compound 35, N-methloxycarbonyl-D-diphenylalanyl-L-prolyl-[(4-amidino-3-fluorophenyl)methyl]amide.TFA]
0.47 nM | COC(=O)N[C@H](Cc1ccc(Cl)c(Cl)c1)C(=O)N1CCC[C@H]1C(=O)NCc1ccc(C(=N)N)cc1 [Compound 26, N-methoxycarbonyl-D-3,4-dichlorophenylalanyl-L-prolyl-[(4-amidinophenyl)methyl]amide.TFA]
0.05 nM | N=C(N)c1ccc(CNC(=O)[C@@H]2CCCN2C(=O)[C@H](NCC(=O)O)C(c2ccccc2)c2ccccc2)cc1F [Compound 47, N-carboxymethyl-D-diphenylalanyl-L-prolyl-[(4-amidino-3-fluorophenyl)methyl]amide.2TFA]
